The source of these data is patent US7491794B2, “Macrocyclic compounds as inhibitors of viral replication” (Intermune, Inc., priority 2003, dated 2009).

pEC50, pIC50: −log10 of the molar value.

In series [1] the test system is HCV sub-genomic replicon, GS4.3. Kind of series: Quantitation by ELISA of NPTII in the HCV sub-genomic replicon, GS4.3, Section B. It counts as cell-based. To be noted: Hepatitis C virus; read-out: replicon EC50 value. The essentials: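 GS4.3 cells (HuH-7 carrying HCV 1377/NS3-3′ replicon) were treated 72 h at 37 °C with inhibitors in 3-fold dilutions, 1% DMSO, no G418. Lysate NPTII was measured by ELISA (TMB, 450 nm). Signal as % of DMSO control; EC50 from 4-parameter fit.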
For orientation: In an ELISA, binding on a coated surface is turned into a signal by an enzyme label.

The nature of series [2]: Rat hepatocyte incubation assay (stability in vitro). Type of series: in vitro ADME. To be noted: rat hepatocytes.
The nature of series [3]: Dog hepatocyte incubation assay (stability in vitro). It counts as in vitro ADME. As to conditions: dog hepatocytes.
The nature of series [4]: Human hepatocyte incubation assay (stability in vitro). Type of series: in vitro ADME. To be noted: human hepatocytes.
The subject of series [5] is panel of other serine proteases. Kind of series: Selectivity against a panel of other serine proteases. It counts as biochemical.
A further series deals with Cytochrome P450 isoforms. Kind of series: Inhibition of Cytochrome P450 isoforms. Type of series: in vitro ADME. To be noted: highest concentrations tested (10 μM).
A further series concerns the target hERG channel (Homo sapiens, UniProt Q12809). Kind of series: Inhibition of hERG channel activity. As to conditions: highest concentrations tested (10 μM).
The target in the next series is T1, NS3-NS4 protease (Hepatitis C virus genotype 1a, UniProt P27958).
T1 construct: Recombinant E. coli or Baculovirus full-length NS3 was diluted to 3.33 μM with assay buffer; made in house; host or cells: E. coli or baculovirus (BV) system
Kind of series: NS3-NS4 protease assay / NS3 inhibition assay, Section C. As to conditions: read-out: NS3-NS4 IC50. It counts as biochemical. The essentials:
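Full-length NS3 (E. coli, 2 nM, or Baculovirus, 3 nM, in assay) precomplexed with excess NS4A-2 peptide, pre-incubated with compound 10 minutes at room temperature, then RETS1 substrate added. Fluorescence (ex 335/em 495 nm) read kinetically over 30 minutes; IC50s from four-parameter fit converted to Ki via Ki=IC50/(1+[S]/Km).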

For series [6], the system named is HCV sub-genomic replicon, GS4.3. Briefly: Quantitation by ELISA of NPTII in the HCV sub-genomic replicon, GS4.3, Section C. It counts as cell-based. As to conditions: Hepatitis C virus; GS4.3 cells, 72 h incubation; read-out: EC50.

Chain of hERG channel (Q12809 whole entry): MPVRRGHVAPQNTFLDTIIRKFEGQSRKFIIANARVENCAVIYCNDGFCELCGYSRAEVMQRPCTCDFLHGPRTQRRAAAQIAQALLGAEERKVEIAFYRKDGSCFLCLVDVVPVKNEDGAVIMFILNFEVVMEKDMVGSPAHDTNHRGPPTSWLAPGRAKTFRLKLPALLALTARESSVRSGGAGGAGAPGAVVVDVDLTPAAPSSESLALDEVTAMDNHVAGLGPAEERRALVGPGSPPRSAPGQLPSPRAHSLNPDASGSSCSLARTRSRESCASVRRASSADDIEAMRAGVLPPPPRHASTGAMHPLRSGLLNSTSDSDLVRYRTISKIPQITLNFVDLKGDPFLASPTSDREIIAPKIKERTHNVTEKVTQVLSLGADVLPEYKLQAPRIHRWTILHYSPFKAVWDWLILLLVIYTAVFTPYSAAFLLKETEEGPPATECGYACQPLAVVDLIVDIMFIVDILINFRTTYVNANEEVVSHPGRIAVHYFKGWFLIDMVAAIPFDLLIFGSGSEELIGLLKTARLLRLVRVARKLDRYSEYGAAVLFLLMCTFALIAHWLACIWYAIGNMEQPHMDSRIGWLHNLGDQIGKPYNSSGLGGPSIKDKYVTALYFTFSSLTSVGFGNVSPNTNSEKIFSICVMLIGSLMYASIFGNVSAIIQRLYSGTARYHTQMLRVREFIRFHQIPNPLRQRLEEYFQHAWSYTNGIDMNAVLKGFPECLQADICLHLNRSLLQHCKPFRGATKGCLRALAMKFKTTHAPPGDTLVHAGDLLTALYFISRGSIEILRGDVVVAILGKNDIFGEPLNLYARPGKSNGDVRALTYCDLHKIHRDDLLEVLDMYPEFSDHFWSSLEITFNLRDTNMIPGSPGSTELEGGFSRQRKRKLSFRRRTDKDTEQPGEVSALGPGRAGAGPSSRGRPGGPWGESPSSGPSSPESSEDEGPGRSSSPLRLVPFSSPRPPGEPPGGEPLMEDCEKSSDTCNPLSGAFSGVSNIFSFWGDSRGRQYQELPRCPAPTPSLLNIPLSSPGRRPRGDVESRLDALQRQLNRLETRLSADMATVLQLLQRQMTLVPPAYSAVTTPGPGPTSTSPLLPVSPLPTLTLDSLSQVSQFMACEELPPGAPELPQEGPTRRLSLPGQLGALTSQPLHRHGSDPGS
T1 sequence (P27958 1027-1657): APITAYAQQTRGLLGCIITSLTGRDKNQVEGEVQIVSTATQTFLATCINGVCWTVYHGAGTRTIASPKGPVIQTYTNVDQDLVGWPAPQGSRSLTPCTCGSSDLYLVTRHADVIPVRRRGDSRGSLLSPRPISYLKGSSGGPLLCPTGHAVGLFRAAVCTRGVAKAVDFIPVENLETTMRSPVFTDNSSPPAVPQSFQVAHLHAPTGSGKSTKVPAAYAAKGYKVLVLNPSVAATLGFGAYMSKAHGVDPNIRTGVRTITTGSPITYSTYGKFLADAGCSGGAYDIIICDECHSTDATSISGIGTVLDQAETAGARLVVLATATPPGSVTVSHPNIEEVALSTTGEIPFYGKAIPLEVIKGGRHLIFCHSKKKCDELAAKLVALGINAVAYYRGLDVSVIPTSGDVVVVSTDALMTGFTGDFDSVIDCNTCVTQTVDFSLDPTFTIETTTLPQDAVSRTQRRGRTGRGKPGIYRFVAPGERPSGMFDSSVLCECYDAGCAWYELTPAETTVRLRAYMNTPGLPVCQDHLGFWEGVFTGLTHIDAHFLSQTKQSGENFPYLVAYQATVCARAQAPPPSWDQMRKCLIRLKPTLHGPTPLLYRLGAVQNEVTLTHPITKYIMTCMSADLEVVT

By pEC50 is commonly meant the negative decadic logarithm of the EC50, by convention in mol/L. For the compound `CC(C)(C)OC(=O)N[C@H]1CCCCC/C=C\[C@@H]2C[C@@]2(C(=O)NS(=O)(=O)C2CC2)NC(=O)[C@@H]2C[C@@H](OC(=O)N3CCc4ccccc4C3)CN2C1=O` [AR261408], in series [1], the pEC50 was about 8.70. In series [2], the “stability in vitro in rat hepatocyte incubation assay” value was “exhibited stability”. For the same compound, the “stability in vitro in dog hepatocyte incubation assay” value in series [3] is on record as “exhibited stability”. The “stability in vitro in human hepatocyte incubation assay” value in series [4] is listed as “exhibited stability”. Besides, in [5], the “selectivity against a panel of other serine proteases” value (from here on “selectivity against a panel”) is recorded as “high degree of selectivity”. The “inhibition of Cytochrome P450 isoforms” value in the series on Cytochrome P450 isoforms is “no significant inhibition”. In addition, the “inhibition of hERG channel activity” value against hERG channel is recorded as “no significant inhibition”.
For the compound `CC(C)(C)OC(=O)N[C@H]1CCCCC/C=C\[C@@H]2C[C@@]2(C(=O)NS(=O)(=O)C2CC2)NC(=O)[C@@H]2C[C@@H](OC(=O)N3Cc4ccccc4C3)CN2C1=O` [AR294381], the pEC50 in series [1] is about 8.70. The “stability in vitro in rat hepatocyte incubation assay” value in [2] was “exhibited stability”. Further, the “stability in vitro in dog hepatocyte incubation assay” value in series [3] was “exhibited stability”. In addition, the “stability in vitro in human hepatocyte incubation assay” value in [4] is listed as “exhibited stability”. Moreover, the “selectivity against a panel” value in series [5] was “high degree of selectivity”. Besides, the “inhibition of Cytochrome P450 isoforms” value in the series on Cytochrome P450 isoforms is given as “no significant inhibition”. Also, the “inhibition of hERG channel activity” value on hERG channel is given as “no significant inhibition”.
For `CC(C)(C)OC(=O)N[C@H]1CCCCCCC[C@@H]2C[C@@]2(C(=O)NS(=O)(=O)C2CC2)NC(=O)[C@@H]2C[C@@H](OC(=O)N3Cc4ccccc4C3)CN2C1=O` [AR333833], the pEC50 in series [1] was about 8.70. Further, the “stability in vitro in rat hepatocyte incubation assay” value in [2] is listed as “exhibited stability”. For the same compound, the “stability in vitro in dog hepatocyte incubation assay” value in series [3] is on record as “exhibited stability”. Moreover, the “stability in vitro in human hepatocyte incubation assay” value in series [4] is on record as “exhibited stability”. The “selectivity against a panel” value in series [5] is reported as “high degree of selectivity”. For the same compound, in the series with Cytochrome P450 isoforms, the “inhibition of Cytochrome P450 isoforms” value was “no significant inhibition”. In addition, the “inhibition of hERG channel activity” value at hERG channel was “no significant inhibition”.
One may read the pIC50 as the negative decadic logarithm of the IC50, by convention in mol/L. Regarding `CC(C)(C)OC(=O)N[C@H]1CCCCC/C=C\[C@@H]2C[C@@]2(C(=O)NS(=O)(=O)Nc2ccccc2)NC(=O)[C@@H]2C[C@@H](OC(=O)N3Cc4ccccc4C3)CN2C1=O` [Compound 127, (1S,4R,6S,14S,18R)-1,3-Dihydro-isoindole-2-carboxylic acid 14-tert-butoxycarbonylamino-4-(phenylaminosulfonyl-aminocarbonyl)-2,15-dioxo-3,16-diaza-tricyclo[14.3.0.0^4,6]nonadec-7-en-18-yl ester], at NS3-NS4 protease, the pIC50 was over 7.00. For the same compound, the pEC50 in [6] is over 7.00.
For `CC(C)(C)OC(=O)N[C@H]1CCCCC/C=C\[C@@H]2C[C@@]2(C(=O)NS(=O)(=O)Nc2ccc(Cl)cc2)NC(=O)[C@@H]2C[C@@H](OC(=O)N3Cc4ccccc4C3)CN2C1=O` [Compound 128, (1S,4R,6S,14S,18R)-1,3-Dihydro-isoindole-2-carboxylic acid 14-tert-butoxycarbonylamino-4-(4-chlorophenylaminosulfonyl-aminocarbonyl)-2,15-dioxo-3,16-diaza-tricyclo[14.3.0.0^4,6]nonadec-7-en-18-yl ester], on NS3-NS4 protease, the pIC50 was over 7.00. In addition, the pEC50 in series [6] was over 7.00.
Regarding `COc1ccc(NS(=O)(=O)NC(=O)[C@@]23C[C@H]2/C=C\CCCCC[C@H](NC(=O)OC(C)(C)C)C(=O)N2C[C@H](OC(=O)N4Cc5ccccc5C4)C[C@H]2C(=O)N3)cc1` [Compound 129, (1S,4R,6S,14S,18R)-1,3-Dihydro-isoindole-2-carboxylic acid 14-tert-butoxycarbonylamino-4-(4-methoxyphenylaminosulfonyl-aminocarbonyl)-2,15-dioxo-3,16-diaza-tricyclo[14.3.0.0^4,6]nonadec-7-en-18-yl ester], the pIC50 at NS3-NS4 protease is over 7.00. In [6], the pEC50 was over 7.00.
In the case of `Cc1ccc(NS(=O)(=O)NC(=O)[C@@]23C[C@H]2/C=C\CCCCC[C@H](NC(=O)OC(C)(C)C)C(=O)N2C[C@H](OC(=O)N4Cc5ccccc5C4)C[C@H]2C(=O)N3)cc1` [Compound 130, (1S,4R,6S,14S,18R)-1,3-Dihydro-isoindole-2-carboxylic acid 14-tert-butoxycarbonylamino-4-(4-methylphenylaminosulfonyl-aminocarbonyl)-2,15-dioxo-3,16-diaza-tricyclo[14.3.0.0^4,6]nonadec-7-en-18-yl ester], the pIC50 on NS3-NS4 protease is over 7.00. Moreover, the pEC50 in series [6] was over 7.00.
In the case of `CC(C)(C)OC(=O)N[C@H]1CCCCC/C=C\[C@@H]2C[C@@]2(C(=O)NS(=O)(=O)Nc2ccc(C#N)cc2)NC(=O)[C@@H]2C[C@@H](OC(=O)N3Cc4ccccc4C3)CN2C1=O` [Compound 131, (1S,4R,6S,14S,18R)-1,3-Dihydro-isoindole-2-carboxylic acid 14-tert-butoxycarbonylamino-4-(4-cyanophenylaminosulfonyl-aminocarbonyl)-2,15-dioxo-3,16-diaza-tricyclo[14.3.0.0^4,6]nonadec-7-en-18-yl ester], at NS3-NS4 protease, the negative logarithm of the IC50 (pIC50) is over 7.00. Further, the negative logarithm of the EC50 (pEC50) in series [6] is over 7.00.
Consider `CC(C)(C)OC(=O)N[C@H]1CCCCC/C=C\[C@@H]2C[C@@]2(C(=O)NS(=O)(=O)Nc2ccc(C(F)(F)F)cc2)NC(=O)[C@@H]2C[C@@H](OC(=O)N3Cc4ccccc4C3)CN2C1=O` [Compound 132, (1S,4R,6S,14S,18R)-1,3-Dihydro-isoindole-2-carboxylic acid 14-tert-butoxycarbonylamino-4-(4-trifluoromethylphenylaminosulfonyl-aminocarbonyl)-2,15-dioxo-3,16-diaza-tricyclo[14.3.0.0^4,6]nonadec-7-en-18-yl ester], for which the negative-log IC50 (pIC50) on NS3-NS4 protease is over 7.00. Also, in series [6], the pEC50 was over 7.00.
Regarding `CC(C)(C)OC(=O)N[C@H]1CCCCC/C=C\[C@@H]2C[C@@]2(C(=O)NS(=O)(=O)NC2CCC2)NC(=O)[C@@H]2C[C@@H](OC(=O)N3Cc4ccccc4C3)CN2C1=O` [Compound 133, (1S,4R,6S,14S,18R)-1,3-Dihydro-isoindole-2-carboxylic acid 14-tert-butoxycarbonylamino-4-(cyclobutylaminosulfonyl-aminocarbonyl)-2,15-dioxo-3,16-diaza-tricyclo[14.3.0.0^4,6]nonadec-7-en-18-yl ester], the pIC50 at NS3-NS4 protease was over 7.00. Besides, the pEC50 in series [6] is over 7.00.
Take `CC(C)(C)OC(=O)N[C@H]1CCCCC/C=C\[C@@H]2C[C@@]2(C(=O)NS(=O)(=O)NC2CCCC2)NC(=O)[C@@H]2C[C@@H](OC(=O)N3Cc4ccccc4C3)CN2C1=O` [Compound 134, (1S,4R,6S,14S,18R)-1,3-Dihydro-isoindole-2-carboxylic acid 14-tert-butoxycarbonylamino-4-(cyclopentylaminosulfonyl-aminocarbonyl)-2,15-dioxo-3,16-diaza-tricyclo[14.3.0.0^4,6]nonadec-7-en-18-yl ester]: the pIC50 at NS3-NS4 protease is over 7.00. For the same compound, the pEC50 in [6] is over 7.00.
As for `CC(C)(C)OC(=O)N[C@H]1CCCCC/C=C\[C@@H]2C[C@@]2(C(=O)NS(=O)(=O)NC2CCCCC2)NC(=O)[C@@H]2C[C@@H](OC(=O)N3Cc4ccccc4C3)CN2C1=O` [Compound 135, (1S,4R,6S,14S,18R)-1,3-Dihydro-isoindole-2-carboxylic acid 14-tert-butoxycarbonylamino-4-(cyclohexylaminosulfonyl-aminocarbonyl)-2,15-dioxo-3,16-diaza-tricyclo[14.3.0.0^4,6]nonadec-7-en-18-yl ester], the pIC50 at NS3-NS4 protease was over 7.00. The pEC50 in [6] was over 7.00.
